Test results reported in patent US20090264427A1, “3-Cyanoquinolines, Methods for Preparation and Use as Insulin-like Growth Factor Inhibitors” (Wyeth, priority 2008, published 2009).

Experiments:
[1] = molecular target: T1, IGF1-receptor kinase (IGFR) (Homo sapiens, UniProt P08069); experiment: 96-well FRET (Lance) tyrosine kinase assay, IGFR; assay type: biochemical; details: ATP 100 micromolar final, 1 hour reaction, enzyme form (GST-, Bis- or Tris-IGFR) not given
T1 construct: GST (with thrombin cleavage site) (N); made in house; host or cells: ExpresSF insect cells
T1 sequence (P08069 31-1367): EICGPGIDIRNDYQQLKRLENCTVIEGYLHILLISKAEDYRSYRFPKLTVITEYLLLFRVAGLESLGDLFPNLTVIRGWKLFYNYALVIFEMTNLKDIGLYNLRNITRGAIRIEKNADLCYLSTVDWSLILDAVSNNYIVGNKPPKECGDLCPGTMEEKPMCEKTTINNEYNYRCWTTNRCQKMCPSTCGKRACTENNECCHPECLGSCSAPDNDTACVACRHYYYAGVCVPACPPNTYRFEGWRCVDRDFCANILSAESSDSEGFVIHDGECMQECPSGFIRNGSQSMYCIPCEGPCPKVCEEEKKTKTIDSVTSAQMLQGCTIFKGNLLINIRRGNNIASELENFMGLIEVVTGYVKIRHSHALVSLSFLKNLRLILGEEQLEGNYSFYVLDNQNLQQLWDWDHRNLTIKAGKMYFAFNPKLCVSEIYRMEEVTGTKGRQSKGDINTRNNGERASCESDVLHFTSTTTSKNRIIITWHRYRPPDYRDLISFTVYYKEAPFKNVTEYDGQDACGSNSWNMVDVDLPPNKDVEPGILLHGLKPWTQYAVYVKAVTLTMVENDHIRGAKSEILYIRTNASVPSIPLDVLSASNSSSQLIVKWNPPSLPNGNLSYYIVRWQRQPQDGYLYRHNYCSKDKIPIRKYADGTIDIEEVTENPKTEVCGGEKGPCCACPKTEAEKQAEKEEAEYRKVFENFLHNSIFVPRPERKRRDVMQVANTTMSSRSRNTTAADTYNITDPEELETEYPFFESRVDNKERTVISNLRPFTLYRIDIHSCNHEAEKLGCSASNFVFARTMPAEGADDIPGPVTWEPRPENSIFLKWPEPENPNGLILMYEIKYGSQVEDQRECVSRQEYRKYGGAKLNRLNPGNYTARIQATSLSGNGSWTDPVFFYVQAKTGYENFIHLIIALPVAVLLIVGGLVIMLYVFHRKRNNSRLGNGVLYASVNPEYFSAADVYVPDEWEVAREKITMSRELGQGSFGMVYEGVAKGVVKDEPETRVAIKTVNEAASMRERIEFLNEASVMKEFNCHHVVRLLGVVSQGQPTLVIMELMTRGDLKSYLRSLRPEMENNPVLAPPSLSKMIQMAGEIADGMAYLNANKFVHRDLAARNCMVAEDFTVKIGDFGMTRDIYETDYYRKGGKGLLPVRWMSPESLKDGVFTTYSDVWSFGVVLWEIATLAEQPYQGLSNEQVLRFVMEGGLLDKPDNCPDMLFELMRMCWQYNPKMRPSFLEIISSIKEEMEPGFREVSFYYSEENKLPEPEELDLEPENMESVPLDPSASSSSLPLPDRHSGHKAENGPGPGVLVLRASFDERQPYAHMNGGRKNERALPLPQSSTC

Row | SMILES | IC50 [1] | melting point
1 | CCn1c(Sc2ccc(Nc3c(C#N)cnc4cc(NCCCN5CCN(C)CC5)c(OC)cc34)cc2Cl)nc(C)c1C [Example 28, 4-[3-Chloro-4-(1-ethyl-4,5-dimethyl-1H-imidazol-2-ylsulfanyl)-phenylamino]-6-methoxy-7-[3-(4-methyl-piperazin-1-yl)-propylamino]-quinoline-3-carbonitrile] | 2 nM | –
2 | COc1cc2c(Nc3ccc(Sc4nc5cc(C)ccc5n4C)c(Cl)c3)c(C#N)cnc2cc1NCCCN(C)C [Example 3, 4-({3-chloro-4-[(1,5-dimethyl-1H-benzimidazol-2-yl)thio]phenyl}amino)-7-{[3-(dimethylamino)propyl]amino}-6-methoxyquinoline-3-carbonitrile] | 291 nM | –
3 | CCn1c(Sc2ccc(Nc3c(C#N)cnc4cc(NCCCN(CCO)CCO)c(OC)cc34)cc2Cl)nc(C)c1C [Example 9, 7-({3-[bis(2-hydroxyethyl)amino]propyl}amino)-4-({3-chloro-4-[(1-ethyl-4,5-dimethyl-1H-imidazol-2-yl)thio]phenyl}amino)-6-methoxyquinoline-3-carbonitrile] | 21 nM | –
4 | CCn1c(Sc2ccc(Nc3c(C#N)cnc4cc(OCCCN(CCO)C(C)(C)C)c(OC)cc34)cc2Cl)nc(C)c1C [Example 11, 7-{3-[tert-butyl(2-hydroxy-ethyl)amino]propoxy}-4-({3-chloro-4-[(1-ethyl-4,5-dimethyl-1H-imidazol-2-yl)thio]phenyl}amino)-6-methoxyquinoline-3-carbonitrile] | 24 nM | –
5 | CCn1c(Sc2ccc(Nc3c(C#N)cnc4cc(NCCCN5CCOCC5)c(OC)cc34)cc2Cl)nc(C)c1C [Example 8, 4-({3-chloro-4-[(1-ethyl-4,5-dimethyl-1H-imidazol-2-yl)thio]phenyl}-amino)-6-methoxy-7-[(3-morpholin-4-ylpropyl)amino]-quinoline-3-carbonitrile] | 13 nM | –
6 | COc1cc2c(Nc3ccc(Sc4nc(C)c(C)n4C)cc3)c(C#N)cnc2cc1NCCCN(C)C [Example 6, 7-{[3-(dimethyl-amino)propyl]-amino}-6-methoxy-4-({4-[(1,4,5-trimethyl-1H imidazol-2-yl)thio]phenyl}amino)-quinoline-3-carbonitrile] | 394 nM | –
7 | CCC1CCCCN1CCCOc1cc2ncc(C#N)c(Nc3ccc(Sc4nc(C)c(C)n4CC)c(Cl)c3)c2cc1OC (stereo not drawn) [Example 14, 4-({3-chloro-4-[(1-ethyl-4,5-dimethyl-1H-imidazol-2-yl)thio]phenyl}amino)-7-[3-(2-ethylpiperidin-1-yl)propoxy]-6-methoxy-quinoline-3-carbonitrile] | 27 nM | –
8 | COc1cc2c(Nc3ccc(Sc4nc(C)c(C)n4C)c(Br)c3)c(C#N)cnc2cc1NCCCN(C)C [Example 5, 4-({3-bromo-4-[(1,4,5-trimethyl-1H-imidazol-2-yl)thio]phenyl}amino)-7-{[3-(dimethylamino)-propyl]amino}-6-methoxy-quinoline-3-carbonitrile] | 30 nM | –
9 | CCn1c(Sc2ccc(Nc3c(C#N)cnc4cc(OCCCN5CCC(O)C5)c(OC)cc34)cc2Cl)nc(C)c1C (stereo not drawn) [Example 20, 4-({3-chloro-4-[(1-ethyl-4,5-dimethyl-1H-imidazol-2-yl)thio]phenyl}amino)-7-[3-(3-hydroxypyrrolidin-1-yl)propoxy]-6-methoxyquinoline-3-carbonitrile] | 20 nM | –
10 | CCOC(=O)C1CCN(CCCOc2cc3ncc(C#N)c(Nc4ccc(Sc5nc(C)c(C)n5CC)c(Cl)c4)c3cc2OC)CC1 [Example 15, ethyl 1-(3-{[4-({3-chloro-4-[(1-ethyl-4,5-dimethyl-1H-imidazol-2-yl)thio]phenyl}amino)-3-cyano-6-methoxyquinolin-7-yl]oxy}propyl)-piperidine-4-carboxylate] | 142 nM | –
11 | CCn1c(Sc2ccc(Nc3c(C#N)cnc4cc(NCCCc5ccccc5)c(OC)cc34)cc2Cl)nc(C)c1C [Example 7, 4-({3-Chloro-4-[(1-ethyl-4,5-dimethyl-1H-imidazol-2-yl)thio]phenyl}amino)-6-methoxy-7-[(3-phenylpropyl)amino]quinoline-3-carbonitrile] | 17200 nM | –
12 | CCn1c(Sc2ccc(Nc3c(C#N)cnc4cc(OCCCNS(=O)(=O)c5ccccc5)c(OC)cc34)cc2Cl)nc(C)c1C [Example 10, N-(3-{4-[3-chloro-4-(1-ethyl-4,5-dimethyl-1H-imidazol-2-ylsulfanyl)-phenylamino]-3-cyano-6-methoxy-quinolin-7-yloxy}-propyl)-benzenesulfonamide] | 3880 nM | –
13 | CCn1c(Sc2ccc(Nc3c(C#N)cnc4cc(OCCCNS(C)(=O)=O)c(OC)cc34)cc2Cl)nc(C)c1C [Example 16, N-(3-{[4-({3-chloro-4-[(1-ethyl-4,5-dimethyl-1H-imidazol-2-yl)thio]phenyl]amino)-3-cyano-6-methoxyquinolin-7-yl]oxy}propyl)-methanesulfonamide] | 35 nM | –

Continued, values first:

Row | IC50 [1] | melting point | SMILES
14 | 47 nM | – | CCn1c(Sc2ccc(Nc3c(C#N)cnc4cc(OCCCN5CCC(O)CC5)c(OC)cc34)cc2Cl)nc(C)c1C [Example 26, 4-({3-chloro-4-[(1-ethyl-4,5-dimethyl-1H-imidazol-2-yl)thio]phenyl}amino)-7-[3-(4-hydroxypiperidin-1-yl)propoxy]-6-methoxyquinoline-3-carbonitrile]
15 | 5 nM | 229 to 230 °C | CCN1CCN(CCCOc2cc3ncc(C#N)c(Nc4ccc(Sc5nc(C)c(C)n5CC)c(Cl)c4)c3cc2OC)CC1 [Example 17, 4-({3-Chloro-4-[(1-ethyl-4,5-dimethyl-1H-imidazol-2-yl)sulfanyl]phenyl}amino)-7-[3-(4-ethyl-1-piperazinyl)propoxy]-6-methoxy-3-quinolinecarbonitrile]
16 | 41 nM | – | CCOC(=O)N1CCN(CCCOc2cc3ncc(C#N)c(Nc4ccc(Sc5nc(C)c(C)n5CC)c(Cl)c4)c3cc2OC)CC1 [Example 13, ethyl 4-(3-{[4-({3-chloro-4-[(1-ethyl-4,5-dimethyl-1H-imidazol-2-yl)thio]phenyl}amino)-3-cyano-6-methoxyquinolin-7-yl]oxy}propyl)-piperazine-1-carboxylate]
17 | 16 nM | – | CCn1c(Sc2ccc(Nc3c(C#N)cnc4cc(OCCCN5CCN(C(C)=O)CC5)c(OC)cc34)cc2Cl)nc(C)c1C [Example 27, 7-[3-(4-acetylpiperazin-1-yl)propoxy]-4-({3-chloro-4-[(1-ethyl-4,5-dimethyl-1H imidazol-2-yl)thio]phenyl}amino)-6-methoxyquinoline-3-carbonitrile]
18 | 11 nM | – | CCn1c(Sc2ccc(Nc3c(C#N)cnc4cc(OCCCN5CCN(CCO)CC5)c(OC)cc34)cc2Cl)nc(C)c1C [Example 18, 4-({3-chloro-4-[(1-ethyl-4,5-dimethyl-1H-imidazol-2-yl)thio]-phenyl}amino)-7-{3-[4-(2-hydroxyethyl)piperazin-1-yl]propoxy}-6-methoxy-quinoline-3-carbonitrile]
19 | 17 nM | – | CCOC(=O)CN1CCN(CCCOc2cc3ncc(C#N)c(Nc4ccc(Sc5nc(C)c(C)n5CC)c(Cl)c4)c3cc2OC)CC1 [Example 22, ethyl [4-(3-{[4-({3-chloro-4-[(1-ethyl-4,5-dimethyl-1H-imidazol-2-yl)thio]phenyl}amino)-3-cyano-6-methoxyquinolin-7-yl]oxy}propyl)piperazin-1-yl]acetate]
20 | 22 nM | – | CCn1c(Sc2ccc(Nc3c(C#N)cnc4cc(OCCCN5CCOCC5)c(OC)cc34)cc2Cl)nc(C)c1C [Example 24, 4-({3-chloro-4-[(1-ethyl-4,5-dimethyl-1H-imidazol-2-yl)thio]phenyl}amino)-6-methoxy-7-(3-morpholin-4-ylpropoxy)qquinoline-3-carbonitrile]
